Data reported in the supplement of paper PMC11208160.

Test: recombinant UMI read abundance after kanamycin selection (control-corrected) (log10(CPM+1)); higher = more efficient recombination; extreme values may be limits of the assay; sequences stand for … in AGTGCAGAGAAAATCGGCCAGTTTTCTCTGCCTGCAGTCCGCATGCCGTGGGACCCCTTGGGTTCTAACCTGTTGCCTAGATTTATGCAGCGGACTGCCTTTCTCCCAAAGTGATAAACCGG…AGGTTGGTTTCACT; site = the 11-nt donor
Procedure, shortened: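 In Escherichia coli, a pool of donor and donor-binding-loop pairs, each with a 12-nt UMI, was tested for the IS621 bridge recombinase. Plating was on IPTG (0.07 mM) plus kanamycin, or without selection, in two replicates. Recombinant UMIs were amplified by PCR across the donor–target junction and sequenced, and counts were reported as log10(CPM+1) after averaging and control-derived scaling.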
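Further: IS621 bridge recombinase in Escherichia coli cells against a fixed T5 target plasmid.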

Row | Sequence | recombinant UMI read abundance (log10)
1 | TAGAACACATGGACCGGTTTTCCCGGTAATCCGTATTTGCA (site TAGAACACTTG) | 2.41
2 | TAGAACACATGGACCGGTTTTCCCGGTAATCCGTATTTGCA (site TAGAAGACTTG) | 0.271
3 | TAGAACACATGGACCGGTTTTCCCGGTAATCCGTATTTGCA (site TAGAATACTTG) | 1.87
4 | TAGAATACATGGACCGGTTTTCCCGGTAATCCGTATTTGAA (site TAGAATACTTA) | 0.0126
5 | TAGAATACATGGACCGGTTTTCCCGGTAATCCGTATTTGAA (site TAGAATACTTC) | 0.0116
6 | TAGAATACATGGACCGGTTTTCCCGGTAATCCGTATTTGAA (site TAGAATACTTG) | 0
7 | TAGAATACATGGACCGGTTTTCCCGGTAATCCGTATTTGAA (site TAGAATACTTT) | 0.686
8 | TAGAATACATGGACCGGTTTTCCCGGTAATCCGTATTTGCC (site TAGAATACTAG) | 0
9 | TAGAATACATGGACCGGTTTTCCCGGTAATCCGTATTTGCC (site TAGAATACTCG) | 0
10 | TAGAATACATGGACCGGTTTTCCCGGTAATCCGTATTTGCC (site TAGAATACTGG) | 0
11 | TAGAATACATGGACCGGTTTTCCCGGTAATCCGTATTTGCC (site TAGAATACTTG) | 0
12 | TAGAATACATGGACCGGTTTTCCCGGTAATCCGTATTTGCT (site TAGAATACTAG) | 1.3
13 | TAGAATACATGGACCGGTTTTCCCGGTAATCCGTATTTGCT (site TAGAATACTCG) | 0.00353
14 | TAGAATACATGGACCGGTTTTCCCGGTAATCCGTATTTGCT (site TAGAATACTGG) | 0
15 | TAGAATACATGGACCGGTTTTCCCGGTAATCCGTATTTGCT (site TAGAATACTTG) | 0.00456
16 | TAGAATCCATGGACCGGTTTTCCCGGTAATCCGTATTTGCA (site TAGAATACTTG) | 0
17 | TAGAATCCATGGACCGGTTTTCCCGGTAATCCGTATTTGCA (site TAGAATCCTTG) | 1.16
18 | TAGAATCCATGGACCGGTTTTCCCGGTAATCCGTATTTGCA (site TAGAATGCTTG) | 0
19 | TAGAATCCATGGACCGGTTTTCCCGGTAATCCGTATTTGCA (site TAGAATTCTTG) | 0
20 | TAGAATGCATGGACCGGTTTTCCCGGTAATCCGTATTTGCA (site TAGAATACTTG) | 0.258
21 | TAGAATGCATGGACCGGTTTTCCCGGTAATCCGTATTTGCA (site TAGAATCCTTG) | 0.762
22 | TAGAATGCATGGACCGGTTTTCCCGGTAATCCGTATTTGCA (site TAGAATGCTTG) | 2.71
23 | TAGAATGCATGGACCGGTTTTCCCGGTAATCCGTATTTGCA (site TAGAATTCTTG) | 0.905

Row | Sequence | recombinant UMI read abundance (log10)
24 | TAGAATTCATGGACCGGTTTTCCCGGTAATCCGTATTTGCA (site TAGAATACTTG) | 0.907
25 | TAGAATTCATGGACCGGTTTTCCCGGTAATCCGTATTTGCA (site TAGAATCCTTG) | 0
26 | TAGAATTCATGGACCGGTTTTCCCGGTAATCCGTATTTGCA (site TAGAATGCTTG) | 0
27 | TAGAATTCATGGACCGGTTTTCCCGGTAATCCGTATTTGCA (site TAGAATTCTTG) | 1.53
28 | TAGACGCCATGGACCGGTTTTCCCGGTAATCCGTATTTGTG (site TAGACGCCTCA) | 0.00987
29 | TAGCAGACATGGACCGGTTTTCCCGGTAATCCGTATTTGGT (site TAGCAGACTAC) | 0.868
30 | TAGCAGGCATGGACCGGTTTTCCCGGTAATCCGTATTTGCT (site TAGCAGGCTAG) | 1.19
31 | TAGCCTACATGGACCGGTTTTCCCGGTAATCCGTATTTGGT (site TAGCCTACTAC) | 0.00532
32 | TAGCCTACATGGACCGGTTTTCCCGGTAATCCGTATTTGGT (site TAGCCTCCTAC) | 0.0181
33 | TAGCCTACATGGACCGGTTTTCCCGGTAATCCGTATTTGGT (site TAGCCTGCTAC) | 0.0107
34 | TAGCCTACATGGACCGGTTTTCCCGGTAATCCGTATTTGGT (site TAGCCTTCTAC) | 0.0222
35 | TAGCCTTCATGGACCGGTTTTCCCGGTAATCCGTATTTGGC (site TAGCCTTCTAC) | 0.00487
36 | TAGCCTTCATGGACCGGTTTTCCCGGTAATCCGTATTTGGC (site TAGCCTTCTCC) | 0.0163
37 | TAGCCTTCATGGACCGGTTTTCCCGGTAATCCGTATTTGGC (site TAGCCTTCTGC) | 0
38 | TAGCCTTCATGGACCGGTTTTCCCGGTAATCCGTATTTGGC (site TAGCCTTCTTC) | 0.0129
39 | TAGCCTTCATGGACCGGTTTTCCCGGTAATCCGTATTTGTT (site TAGCCTTCTAA) | 1.08
40 | TAGCCTTCATGGACCGGTTTTCCCGGTAATCCGTATTTGTT (site TAGCCTTCTAC) | 0.0119
41 | TAGCCTTCATGGACCGGTTTTCCCGGTAATCCGTATTTGTT (site TAGCCTTCTAG) | 0.0127
42 | TAGCCTTCATGGACCGGTTTTCCCGGTAATCCGTATTTGTT (site TAGCCTTCTAT) | 0.00427
43 | TAGCGCGCATGGACCGGTTTTCCCGGTAATCCGTATTTGAC (site TAGCGCGCTGT) | 2.03
44 | TAGCGGTCATGGACCGGTTTTCCCGGTAATCCGTATTTGTT (site TAGCGGTCTAA) | 1.27
45 | TAGCTAGCATGGACCGGTTTTCCCGGTAATCCGTATTTGAA (site AAGCTAGCTTT) | 0.0472
46 | TAGCTAGCATGGACCGGTTTTCCCGGTAATCCGTATTTGAA (site CAGCTAGCTTT) | 0.178

Row | Sequence | recombinant UMI read abundance (log10)
47 | TAGCTAGCATGGACCGGTTTTCCCGGTAATCCGTATTTGAA (site GAGCTAGCTTT) | 0
48 | TAGCTAGCATGGACCGGTTTTCCCGGTAATCCGTATTTGAA (site TAACTAGCTTT) | 0.822
49 | TAGCTAGCATGGACCGGTTTTCCCGGTAATCCGTATTTGAA (site TACCTAGCTTT) | 0.015
50 | TAGCTAGCATGGACCGGTTTTCCCGGTAATCCGTATTTGAA (site TAGATAGCTTT) | 0.0135
51 | TAGCTAGCATGGACCGGTTTTCCCGGTAATCCGTATTTGAA (site TAGCAAGCTTT) | 0.00493
52 | TAGCTAGCATGGACCGGTTTTCCCGGTAATCCGTATTTGAA (site TAGCCAGCTTT) | 0.0109
53 | TAGCTAGCATGGACCGGTTTTCCCGGTAATCCGTATTTGAA (site TAGCGAGCTTT) | 0.0252
54 | TAGCTAGCATGGACCGGTTTTCCCGGTAATCCGTATTTGAA (site TAGCTAACTTT) | 0.0471
55 | TAGCTAGCATGGACCGGTTTTCCCGGTAATCCGTATTTGAA (site TAGCTACCTTT) | 0.0202
56 | TAGCTAGCATGGACCGGTTTTCCCGGTAATCCGTATTTGAA (site TAGCTAGCTAT) | 0.502
57 | TAGCTAGCATGGACCGGTTTTCCCGGTAATCCGTATTTGAA (site TAGCTAGCTCT) | 0.00536
58 | TAGCTAGCATGGACCGGTTTTCCCGGTAATCCGTATTTGAA (site TAGCTAGCTGT) | 1.28
59 | TAGCTAGCATGGACCGGTTTTCCCGGTAATCCGTATTTGAA (site TAGCTAGCTTA) | 0.00377
60 | TAGCTAGCATGGACCGGTTTTCCCGGTAATCCGTATTTGAA (site TAGCTAGCTTC) | 0.504
61 | TAGCTAGCATGGACCGGTTTTCCCGGTAATCCGTATTTGAA (site TAGCTAGCTTG) | 0.0037
62 | TAGCTAGCATGGACCGGTTTTCCCGGTAATCCGTATTTGAA (site TAGCTAGCTTT) | 0.858
63 | TAGCTAGCATGGACCGGTTTTCCCGGTAATCCGTATTTGAA (site TAGCTATCTTT) | 0.588
64 | TAGCTAGCATGGACCGGTTTTCCCGGTAATCCGTATTTGAA (site TAGCTCGCTTT) | 0.0026
65 | TAGCTAGCATGGACCGGTTTTCCCGGTAATCCGTATTTGAA (site TAGCTGGCTTT) | 0.0168
66 | TAGCTAGCATGGACCGGTTTTCCCGGTAATCCGTATTTGAA (site TAGCTTGCTTT) | 0.00961
67 | TAGCTAGCATGGACCGGTTTTCCCGGTAATCCGTATTTGAA (site TAGGTAGCTTT) | 0.0179
68 | TAGCTAGCATGGACCGGTTTTCCCGGTAATCCGTATTTGAA (site TAGTTAGCTTT) | 0.0249
